Source: patent publication US20240189289A1, “INHIBITORS OF EPHB3 SIGNALING” (The Brigham and Women`s Hospital, Inc., priority 2021, published 2024)

System: EAE in C57BL/6 mice
Assay: EAE in C57BL/6 mice (MOG35-55)
Type: in vivo, mouse
Protocol: EAE. EAE was induced in 8-10 week old female C57BL/6 or NOD by subcutaneous immunization with 150 μg MOG35-55 (#110582, Genemed Synthesis) emulsified in 200 μL of complete Freund's adjuvant per mouse, followed by administration of 200 ng pertussis toxin (#180, List biological Laboratories) on days 0 and 2 as described. […] EAE was assessed as follows: 0, no signs of disease; 1, loss of tone in the tail; 2, hind limb paresis; 3, hind limb paralysis; 4, tetraplegia; 5, moribund.
Mononuclear cells. Mononuclear cells, including astrocytes, monocytes, and microglia, were isolated from the CNS as described. Briefly, mice were perfused with 1×PBS and the isolated brain and spinal cords were homogenized with a razor blade, digested in 0.66 mg/mL papain (#P4762, Sigma-Aldrich) for 15 minutes at 37° C. and subsequently 15 minutes with 0.66 mg/mL Collagenase D (#11088858001, Roche) and 8 U/mL DNase I (#90083, Thermo Fisher Scientific). Samples where then homogenized and filtered through a 70 µm cell strainer and resuspended in 30% Percoll TM solution (#17-5445-01, GE Healthcare) overlayed by 1×PBS for myelin removal. Isolated mononuclear CNS cells were washed with 1×PBS and stained with fluorochrome-conjugated antibody to FITC anti-CD11b (Cat #11-0112-85, eBioscience), APC anti-CD45 (Cat #17-0451-83, eBioscience), BV421 anti-Ly-6C (Cat #128031, Biolegend), PE anti-mouse CD45R/B220 (Cat #553089, BD Biosciences), PE anti-CD140a (Cat #12-1401-81, eBioscience), PE anti-CD105 (Cat #12-1051-82, eBioscience), PE anti-04 (Cat #FAB1326P, R&D), PE anti-Ly-6G (Cat #127608, BioLegend) and PE anti-mouse TER-119 (Cat #116207, BioLegend). Microglia were sorted as CD11b^+CD45^lo Ly6C1^lo, inflammatory monocytes were considered as CD45^hiCD11b^+Ly6C1^hi. Astrocytes were sorted as CD11b^loCD45^lo Ly6C^loCD105^lo CD140a^lo CD11b^loTer119^loCD19^lo after the exclusion of erythrocytes, lymphocytes, microglia, oligodendrocytes, and monocytes. FACSAria IIU (BD Biosciences) was used for cell sorting.
Analysis of T cells. For T-cell flow cytometry analysis, CNS single-cell suspensions or splenocytes were stimulated with 50 ng/mL phorbol 12-myristate 13-acetate (PMA, #P1585, Sigma-Aldrich), 1 μM ionomycin (#I9657, Sigma-Aldrich), GolgiSTOP and (#554724, BD Biosciences, 1:1500) GolgiPLUG (#555029, BD Biosciences, 1:1500) in RPMI 1640 medium (#11875119, Life Technologies) containing 10% FBS (#10438026, GIBCO), penicillin/streptomycin (#15140122, GIBCO, 1:100) for 4 h at 37° C. in a 5% CO2 incubator. Following stimulation, T cells were stained with antibodies against surface markers, and thereafter fixed and stained with antibody against intracellular target protein with an intracellular antibody labeling kit following its instructions (#00-5523, eBioscience).
RNA-sequencing. Sorted astrocytes or microglia were re-suspended in extraction buffer of Picopure RNA isolation kit (KIT0204, Thermo Fisher) and after 30 min incubation at 42° C. samples were extracted following manufacturer's instructions with on-column DNase I digestion (QIAGEN, #79254). RNA was suspended in 10 μl of nuclease free water and 5 μl were sent for SMARTseq sequencing by the Broad Technology Labs and the Broad Genomics Platform. Processed RNA-Seq data was filtered, removing genes with low read counts. Read counts were normalized using TMM normalization and CPM (counts per million) were calculated to create a matrix of normalized expression values.
H&E, LFB and silver staining. Transverse sections from lumbar spinal cords of EAE mice at the end of the experiment were fixed in 4% paraformaldehyde, pH 7.4, embedded in paraffin and cut at 10-μm thickness. Sections were stained with Hematoxylin and Eosin, Luxol fast blue, or silver nitrate. Images were acquired by using a Zeiss Axioskop2 plus microscope with AxioCam HRC and AxioVision software and analyzed by using ImageJ software. […]

[1] = 20 mg/kg from the peak of the disease
[2] = daily intraperitoneal injections

O=C(Nc1ccccc1Cl)c1cnc2ccc(C3CCNCC3)cn12 [A38]
T-cell response [1]: did not affect T-cell response | astrocyte and microglial expression of transcriptional modules associated with CNS inflammation and neurodegeneration (RNA-seq) [1]: decreased | axonal loss (histopathology) [1]: reduced demyelination, and axonal loss | demyelination (histopathology) [1]: reduced demyelination | recruitment of Ly6C^Hi pro-inflammatory monocytes to the CNS [1]: reduced the recruitment | EAE clinical scores (20 mg/kg i.p. twice a day from the peak of the disease): ameliorated EAE, as indicated by the reduction in clinical scores | expression of genes related to ROS metabolic processes in astrocytes isolated from treated EAE mice (FIG. 5D): a decrease in the expression | therapeutic effects of A38 concomitant with EphB3 knockdown in astrocytes (compared with either intervention alone): did not further increase the therapeutic effects | T cell counts in the spleen [2]: unchanged | pro-inflammatory monocytes in the CNS [2]: decrease | course of EAE, preventive treatment (daily intraperitoneal injections from day 3 (priming phase)): did not alter the course of EAE | clinical course of EAE, treatment during the chronic phase (daily intraperitoneal injections from day 21): ameliorated the clinical course significantly | IFN-γ and IL-17 producing T cells in the CNS (daily intraperitoneal injections, chronic phase): significant decrease
